Results published in US20260022143A1, “Cyclic Peptide Inhibitors of IL-23” (JANSSEN PHARMACEUTICA NV, priority 2022, published 2026).
Starred links: 1 amine or outer side, 2 acyl side, 3 side chain; linkers in the order of their positions; H or OH if unused. Positions of bridges follow the written chain, without caps; N, C: chain ends. Non-standard residues stand in square brackets, D forms with d. Residues, ends and D or L forms follow the SMILES beside them. *: point of attachment. X68 = COCCOCCOCCOCCOCCOCCC(=O)N(CCCC[C@@H](N[*:1])C(=O)[*:2])C(C)=O; Me3N+(CH2)2O(CH2)2O(CH2)2CO = C[N+](C)(C)CCOCCOCCC(=O)*; NH(CH2CH2O)2CH2CH2NMe3+ = C[N+](C)(C)CCOCCOCCN*; Trp(7-Me) = Cc1cccc2c(C[C@H](N)C(=O)O)c[nH]c12; Hexanoyl(6-NMe3+) = C[N+](C)(C)CCCCCC(=O)*; dLys(Me3) = C[N+](C)(C)CCCC[C@@H](N)C(=O)O; 2Nal = N[C@@H](Cc1ccc2ccccc2c1)C(=O)O; Propanoyl(3,3,3-F3) = O=C(CC(F)(F)F)*; AEF = NCCOc1ccc(C[C@H](N)C(=O)O)cc1; X19 = C[N+](C)(C)C[C@@H](CC(=O)O)N*; X10 = C[N+](C)(C)C[C@H](CC(=O)O)N*; 3Pal = N[C@@H](Cc1cccnc1)C(=O)O; Lys(Me) = CNCCCC[C@H](N)C(=O)O; X7 = COCCOCCOCCOCCOCCOCCC(=O)*; Pen = CC(C)(S)[C@H](N)C(=O)O; Thp = NC1(C(=O)O)CCOCC1; Dap = NC[C@H](N)C(=O)O; Me2NCH2CH2 = CN(C)CC*; Sar = CNCC(=O)O

Experiment: Exposed Polar Surface Area (EPSA)
Type: physicochemical
Conditions: SFC on Chirex 3014 column; sample 1 mM DMSO stock; read-out: EPSA
Summary of the method: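 Polarity measured by SFC on a Chirex 3014 column (35 °C, 4 mL/min) with methanol/ammonium formate in CO2 as gradient eluent. Retention times were normalised to EPSA (Å^2) against eight reference compounds.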

EPSA | Compound
153 A^2 | CC(=O)N[C@@H]1C(=O)N[C@@H](CC(=O)N(C)C)C(=O)N[C@@H]([C@@H](C)O)C(=O)N[C@@H](Cc2c[nH]c3c(C)cccc23)C(=O)N[C@@H](CCC(=O)N(C)C)C(=O)N[C@H](C(=O)N[C@@H](Cc2ccc(OCCN(C)C)cc2)C(=O)N[C@@H](Cc2ccc3ccccc3c2)C(=O)NC2(C(=O)N[C@@H](CCC(=O)O)C(=O)N[C@@H](CC(N)=O)C(=O)N[C@@H](Cc3cccnc3)C(=O)N(C)CC(=O)N(C)C)CCOCC2)C(C)(C)SSC1(C)C [compound 120, MeCO-Pen(3)-N(N(Me)2)-T-7MeW-Q(N(Me)2)-Pen(3)-AEF(N(Me)2)-2Nal-THP-E-N-3Pya-Sar-CON(Me)2] (Ac-[Pen]D(NMe2)T[Trp(7-Me)]E(NMe2)[Pen]Y(Me2NCH2CH2)[2Nal][Thp]EN[3Pal][Sar]-NMe2; disulfide 1-6)
156 A^2 | COCCOCCOCCOCCOCCOCCC(=O)N(CCCC[C@@H](NC(=O)C1(NC(=O)[C@H](Cc2ccc3ccccc3c2)NC(=O)[C@H](Cc2ccc(OCCN)cc2)NC(=O)[C@H]2NC(=O)[C@H](CCCCNC(C)=O)NC(=O)[C@H](Cc3c[nH]c4c(C)cccc34)NC(=O)[C@H]([C@@H](C)O)NC(=O)[C@H](CC(N)=O)NC(=O)[C@@H](NC(C)=O)C(C)(C)SSC2(C)C)CCOCC1)C(=O)N[C@@H](CC(N)=O)C(=O)N[C@@H](Cc1cccnc1)C(=O)N(C)CC(N)=O)C(C)=O [compound 123] (Ac-[Pen]NT[Trp(7-Me)]K(Ac)[Pen][AEF][2Nal][Thp][X68]N[3Pal][Sar]-NH2; disulfide 1-6)
158 A^2 | COCCOCCOCCOCCOCCOCCC(=O)N(C)CCCC[C@@H]1NC(=O)[C@H](Cc2c[nH]c3c(C)cccc23)NC(=O)[C@H]([C@@H](C)O)NC(=O)[C@H](CC(N)=O)NC(=O)[C@@H](NC(C)=O)C(C)(C)SSC(C)(C)[C@@H](C(=O)N[C@@H](Cc2ccc(OCCN)cc2)C(=O)N[C@@H](Cc2ccc3ccccc3c2)C(=O)NC2(C(=O)N[C@@H](CCCCNC(C)=O)C(=O)N[C@@H](CC(N)=O)C(=O)N[C@@H](Cc3cccnc3)C(=O)N(C)CC(N)=O)CCOCC2)NC1=O [compound 124] (Ac-[Pen]NT[Trp(7-Me)][Lys(Me)](X7)[Pen][AEF][2Nal][Thp]K(Ac)N[3Pal][Sar]-NH2; disulfide 1-6)
184 A^2 | CC(=O)NCCCC[C@@H]1NC(=O)[C@H](Cc2c[nH]c3c(C)cccc23)NC(=O)[C@H]([C@@H](C)O)NC(=O)[C@H](CC(N)=O)NC(=O)[C@@H](NC(=O)[C@@H](CCC(=O)N[C@@H](CC(=O)O)C[N+](C)(C)C)NC(C)=O)C(C)(C)SSC(C)(C)[C@@H](C(=O)N[C@@H](Cc2ccc(OCCN)cc2)C(=O)N[C@@H](Cc2ccc3ccccc3c2)C(=O)NC2(C(=O)N[C@@H](CCCCNC(C)=O)C(=O)N[C@@H](CC(N)=O)C(=O)N[C@@H](Cc3cccnc3)C(=O)N(C)CC(N)=O)CCOCC2)NC1=O [compound 126] (Ac-[dE](X10)[Pen]NT[Trp(7-Me)]K(Ac)[Pen][AEF][2Nal][Thp]K(Ac)N[3Pal][Sar]-NH2; disulfide 2-7)
179 A^2 | CC(=O)NCCCC[C@@H]1NC(=O)[C@H](Cc2c[nH]c3c(C)cccc23)NC(=O)[C@H]([C@@H](C)O)NC(=O)[C@H](CC(N)=O)NC(=O)[C@@H](NC(C)=O)C(C)(C)SSC(C)(C)[C@@H](C(=O)N[C@@H](Cc2ccc(OCCN)cc2)C(=O)N[C@@H](Cc2ccc3ccccc3c2)C(=O)NC2(C(=O)N[C@@H](CCC(=O)N[C@H](CC(=O)O)C[N+](C)(C)C)C(=O)N[C@@H](CC(N)=O)C(=O)N[C@@H](Cc3cccnc3)C(=O)N(C)CC(N)=O)CCOCC2)NC1=O [compound 127] (Ac-[Pen]NT[Trp(7-Me)]K(Ac)[Pen][AEF][2Nal][Thp]E(X19)N[3Pal][Sar]-NH2; disulfide 1-6)
175 A^2 | CC(=O)NCCCC[C@@H]1NC(=O)[C@H](Cc2c[nH]c3c(C)cccc23)NC(=O)[C@H]([C@@H](C)O)NC(=O)[C@H](CC(N)=O)NC(=O)[C@@H](NC(C)=O)C(C)(C)SSC(C)(C)[C@@H](C(=O)N[C@@H](Cc2ccc(OCCN)cc2)C(=O)N[C@@H](Cc2ccc3ccccc3c2)C(=O)NC2(C(=O)N[C@@H](CCC(=O)N[C@@H](CC(=O)O)C[N+](C)(C)C)C(=O)N[C@@H](CC(N)=O)C(=O)N[C@@H](Cc3cccnc3)C(=O)N(C)CC(N)=O)CCOCC2)NC1=O [compound 128] (Ac-[Pen]NT[Trp(7-Me)]K(Ac)[Pen][AEF][2Nal][Thp]E(X10)N[3Pal][Sar]-NH2; disulfide 1-6)
163 A^2 | COCCOCCOCCOCCOCCOCCOCCOCCNC(=O)CN(C)C(=O)[C@H](Cc1cccnc1)NC(=O)[C@H](CC(N)=O)NC(=O)[C@H](CCC(=O)O)NC(=O)C1(NC(=O)[C@H](Cc2ccc3ccccc3c2)NC(=O)[C@H](Cc2ccc(OCCN)cc2)NC(=O)[C@H]2NC(=O)[C@H](CCCCNC(C)=O)NC(=O)[C@H](Cc3c[nH]c4c(C)cccc34)NC(=O)[C@H]([C@@H](C)O)NC(=O)[C@H](CC(N)=O)NC(=O)[C@@H](NC(C)=O)C(C)(C)SSC2(C)C)CCOCC1 [compound 132]
151 A^2 | CC(=O)NC[C@H](NC(=O)C1(NC(=O)[C@H](Cc2ccc3ccccc3c2)NC(=O)[C@H](Cc2ccc(OCCN(C)C)cc2)NC(=O)[C@H]2NC(=O)[C@H](CCCCN(C)C(C)=O)NC(=O)[C@H](Cc3c[nH]c4c(C)cccc34)NC(=O)[C@H]([C@@H](C)O)NC(=O)[C@H](CC(=O)N(C)C)NC(=O)[C@@H](NC(=O)CCCCC[N+](C)(C)C)C(C)(C)SSC2(C)C)CCOCC1)C(=O)N[C@@H](CC(N)=O)C(=O)N[C@@H](Cc1cccnc1)C(=O)N(C)CC(=O)N(C)C [compound 133, 5cpaCO-Pen(3)-N(N(Me)2)-T-7MeW-K(NMeAc)-Pen(3)-AEF(N(Me)2)-2Nal-THP-Dap(Ac)-N-3Pya-Sar-CON(Me)2] ({Hexanoyl(6-NMe3+)}-[Pen]D(NMe2)T[Trp(7-Me)][Lys(Me)](Ac)[Pen]Y(Me2NCH2CH2)[2Nal][Thp][Dap](Ac)N[3Pal][Sar]-NMe2; disulfide 1-6 (inferred))
159 A^2 | CC(=O)NCCCC[C@@H]1NC(=O)[C@H](Cc2c[nH]c3c(C)cccc23)NC(=O)[C@H]([C@@H](C)O)NC(=O)[C@H](CC(N)=O)NC(=O)[C@@H](NC(C)=O)C(C)(C)SSC(C)(C)[C@@H](C(=O)N[C@@H](Cc2ccc(OCCN)cc2)C(=O)N[C@@H](Cc2ccc3ccccc3c2)C(=O)NC2(C(=O)N[C@@H](CCC(=O)O)C(=O)N[C@@H](CC(N)=O)C(=O)N[C@@H](Cc3cccnc3)C(=O)N(C)CC(=O)NCCOCCOCC[N+](C)(C)C)CCOCC2)NC1=O [compound 134] (Ac-[Pen]NT[Trp(7-Me)]K(Ac)[Pen][AEF][2Nal][Thp]EN[3Pal][Sar]-{NH(CH2CH2O)2CH2CH2NMe3+}; disulfide 1-6)
160 A^2 | Cc1cccc2c(C[C@@H]3NC(=O)[C@H]([C@@H](C)O)NC(=O)[C@H](CC(N)=O)NC(=O)[C@@H](NC(=O)CCOCCOCC[N+](C)(C)C)C(C)(C)SSC(C)(C)[C@@H](C(=O)N[C@@H](Cc4ccc(OCCN)cc4)C(=O)N[C@@H](Cc4ccc5ccccc5c4)C(=O)NC4(C(=O)N[C@@H](CCC(=O)N(C)C)C(=O)N[C@@H](CC(N)=O)C(=O)N[C@@H](Cc5cccnc5)C(=O)N(C)CC(N)=O)CCOCC4)NC(=O)[C@H](CCC(=O)N(C)C)NC3=O)c[nH]c12 [compound 137, cPEG3aCO-Pen(3)-N-T-7MeW-Q(N(Me)2)-Pen(3)-AEF-2Nal-THP-Q(N(Me)2)-N-3Pya-Sar-CONH2] ({Me3N+(CH2)2O(CH2)2O(CH2)2CO}-[Pen]NT[Trp(7-Me)]E(NMe2)[Pen][AEF][2Nal][Thp]E(NMe2)N[3Pal][Sar]-NH2; disulfide 1-6)
159 A^2 | CC(=O)N[C@@H]1C(=O)N[C@@H](CC(N)=O)C(=O)N[C@@H]([C@@H](C)O)C(=O)N[C@@H](Cc2c[nH]c3c(C)cccc23)C(=O)N[C@@H](CCC(=O)N(C)C)C(=O)N[C@H](C(=O)N[C@@H](Cc2ccc(OCCN)cc2)C(=O)N[C@@H](Cc2ccc3ccccc3c2)C(=O)NC2(C(=O)N[C@@H](CCC(=O)N(C)C)C(=O)N[C@@H](CC(N)=O)C(=O)N[C@@H](Cc3cccnc3)C(=O)N(C)CC(N)=O)CCOCC2)C(C)(C)SSC1(C)C [compound 138] (Ac-[Pen]NT[Trp(7-Me)]E(NMe2)[Pen][AEF][2Nal][Thp]E(NMe2)N[3Pal][Sar]-NH2; disulfide 1-6 (inferred))
161 A^2 | CC(=O)NCCCC[C@@H]1NC(=O)[C@H](Cc2c[nH]c3c(C)cccc23)NC(=O)[C@H]([C@@H](C)O)NC(=O)[C@H](CC(N)=O)NC(=O)[C@@H](NC(=O)[C@@H](CCCC[N+](C)(C)C)NC(=O)CC(F)(F)F)C(C)(C)SSC(C)(C)[C@@H](C(=O)N[C@@H](Cc2ccc(OCCN)cc2)C(=O)N[C@@H](Cc2ccc3ccccc3c2)C(=O)NC2(C(=O)N[C@@H](CCCCNC(C)=O)C(=O)N[C@@H](CC(N)=O)C(=O)N[C@@H](Cc3cccnc3)C(=O)N(C)CC(N)=O)CCOCC2)NC1=O [compound 144] ({Propanoyl(3,3,3-F3)}-[dLys(Me3)][Pen]NT[Trp(7-Me)]K(Ac)[Pen][AEF][2Nal][Thp]K(Ac)N[3Pal][Sar]-NH2; disulfide 2-7)
159 A^2 | CC(=O)N(C)CCCC[C@@H]1NC(=O)[C@H](Cc2c[nH]c3c(C)cccc23)NC(=O)[C@H]([C@@H](C)O)NC(=O)[C@H](CC(=O)N(C)C)NC(=O)[C@@H](NC(=O)CCOCCOCC[N+](C)(C)C)C(C)(C)SSC(C)(C)[C@@H](C(=O)N[C@@H](Cc2ccc(OCCN)cc2)C(=O)N[C@@H](Cc2ccc3ccccc3c2)C(=O)NC2(C(=O)N[C@@H](CCC(=O)N(C)C)C(=O)N[C@@H](CC(N)=O)C(=O)N[C@@H](Cc3cccnc3)C(=O)N(C)CC(N)=O)CCOCC2)NC1=O [compound 150, cPEG3aCO-Pen(3)-N(N(Me)2)-T-7MeW-K(NMeAc)-Pen(3)-AEF-2Nal-THP-Q(N(Me)2)-N-3Pya-Sar-CONH2] ({Me3N+(CH2)2O(CH2)2O(CH2)2CO}-[Pen]D(NMe2)T[Trp(7-Me)][Lys(Me)](Ac)[Pen][AEF][2Nal][Thp]E(NMe2)N[3Pal][Sar]-NH2; disulfide 1-6)
